# According to patent US20080027042A1, “Novel Aminopyridine Derivatives Having Aurora a Selective Inhibitory Action” (priority 2004, published 2008):
# Several values for one entry are separate records, joined by “and”; a condition that tells them apart may be missing. Equal entries are not always repeated.
# Legend:
# Aurora B = molecular target: T1, Aurora B (Homo sapiens, UniProt Q96GD4); test: Aurora B inhibitory action (33P-ATP kinase assay, Kemptide substrate); assay type: biochemical; details: 100 μM ATP, 30° C., 20 minutes
# T1 construct: histidine tag (N); made in house; host or cells: Escherichia coli BL21-CodonPlus(DE3)-RIL
# T1 sequence (Q96GD4 whole entry): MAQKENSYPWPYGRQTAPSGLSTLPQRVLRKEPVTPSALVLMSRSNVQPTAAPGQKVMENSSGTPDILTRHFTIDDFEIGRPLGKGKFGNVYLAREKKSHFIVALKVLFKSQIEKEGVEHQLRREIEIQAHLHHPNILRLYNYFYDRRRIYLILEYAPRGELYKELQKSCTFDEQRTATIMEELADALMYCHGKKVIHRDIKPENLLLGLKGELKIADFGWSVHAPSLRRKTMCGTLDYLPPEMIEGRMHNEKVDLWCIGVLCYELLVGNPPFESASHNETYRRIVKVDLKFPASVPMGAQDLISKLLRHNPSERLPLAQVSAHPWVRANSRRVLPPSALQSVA
# Method in brief: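 His-tagged Aurora B expressed in E. coli, reacted with 100 μM Kemptide, 100 μM ATP plus [γ-33P]ATP in Tris pH 7.4, 15 mM Mg acetate, 0.2 mM EDTA, 30 °C, 20 min. Peptide captured on P81 filters for scintillation counting; compounds added from DMSO dilutions.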
# [1] = tested on: Human cervical cancer cells (HeLa S3); test: Effect by combined use of drugs in cells (with paclitaxel), WST-8 method; assay type: cell-based; details: three days; for inhibition at 0.1 µM: HeLa S3, compound 0.1 μM alone; for inhibition at 0.1 µM / inhibition at 0.3 µM / inhibition at 1 µM / inhibition at 3 µM: read-out: Cell growth inhibitory effect by sole administration of the compound of Example (%); for inhibition at 0.3 µM: HeLa S3, compound 0.3 μM alone; for inhibition at 1 µM: HeLa S3, compound 1.0 μM alone; for inhibition at 3 µM: HeLa S3, compound 3.0 μM alone
# Text: Method for Judging the Effect by Combined Use of Drugs in Cells
# Fetal calf serum (FCS) was purchased from Moregate Biotech, DMEM medium from Invitrogen Corp., paclitaxel (tradename: Taxol) from Sigma-Aldrich, Inc., and WST-8 from Kishida Chemical Co., Ltd.
# (§1) Human cervical cancer cells (HeLa S3) were obtained from the American Type Culture Collection (ATCC).
# (§2) c) Method of Judging the Effect
# Cells were suspended in a DMEM medium containing 10% FCS, and the cell suspension was dispensed to two 96-well plastic plates at a rate of 750 cells/100 microliters per well. The plates were incubated overnight in 5% CO2-95% air at 37° C. A drug was subjected to graded dilution in dimethylsulfoxide and flurther diluted with DMSO or with a DMEM medium containing 10% FCS and also containing 2 nM paclitaxel. Then, the dilutions were each dispensed to one of the plates on which cells had been disseminated, at a rate of 100 microliters per well. The final concentration of paclitaxel at this stage was 1 nM. Also, the concentrations in the case of sole administration of the compound according to the invention were 0.03, 0.1, 0.3, 1 and 3 μM. The plates were incubated for further three days in 5% CO2-95% air at 37° C. Cell growth after incubation was measured by the WST-8 method (H. Tominaga, et al., Anal. Commun., 36, 47-50 (1999)). Here, the WST-8 method refers to a method in which 20 microliters of a WST-8 reagent solution is added to each well, incubation is conducted at 37° C. for 45 minutes, the plate is stirred, and the amount of formazan produced is measured by a colorimetric method to determine the inhibitory rate of the drug. The growth inhibitory effects of paclitaxel and of the compound according to the invention were determined, with the value obtained in sole treatment of DMSO being defined as 0%.
# [2] = tested on: Human cervical cancer cells (HeLa S3); test: Cell growth inhibitory effect, WST-8 method; assay type: cell-based; details: 72 h, HeLa S3, three days incubation
# Text: Method for Judging the Pharmaceutical Effect Using cells
# Fetal calf serum (FCS) was purchased from Moregate Biotech, and DMEM medium was purchased from Invitrogen Corp. WST-8 was purchased from Kishida Chemical Co., Ltd.
# as §1, §2
# Cells were suspended in a DMEM medium containing 10% FCS, and the cell suspension was dispensed to a 96-well plastic plate at a rate of 750 cells/l 00 microliters per well. The plate was incubated overnight in 5% CO2-95% air at 37° C. A drug was subjected to graded dilution in dimethylsulfoxide and further diluted with a DMEM medium containing 10% FCS. Then, the dilution was dispensed to the plate on which cells had been disseminated, at a rate of 100 microliters per well. The plate was incubated for further three days in 5% CO2-95% air at 37° C. Cell growth after incubation was measured by the WST-8 method (H. Tominaga, et al., Anal. Commun., 36, 47-50 (1999)). Here, the WST-8 method refers to a method in which 20 microliters of a WST-8 reagent solution is added to each well, incubation is conducted at 37° C. for 45 minutes, the plate is stirred, and the amount of formazan produced is measured by a calorimetric method to determine the inhibitory rate of the drug. The concentration for 50% growth inhibition (EC50, IM) of the compound was determined.
# Aurora A = molecular target: T2, Aurora A (Homo sapiens, UniProt O14965); test: Aurora A inhibitory action (33P-ATP kinase assay, Kemptide substrate); assay type: biochemical; details: 20 μM ATP, 30° C., 20 minutes
# T2 construct: histidine tag (N); made in house; host or cells: Escherichia coli BL21-CodonPlus(DE3)-RIL
# T2 sequence (O14965 1-403): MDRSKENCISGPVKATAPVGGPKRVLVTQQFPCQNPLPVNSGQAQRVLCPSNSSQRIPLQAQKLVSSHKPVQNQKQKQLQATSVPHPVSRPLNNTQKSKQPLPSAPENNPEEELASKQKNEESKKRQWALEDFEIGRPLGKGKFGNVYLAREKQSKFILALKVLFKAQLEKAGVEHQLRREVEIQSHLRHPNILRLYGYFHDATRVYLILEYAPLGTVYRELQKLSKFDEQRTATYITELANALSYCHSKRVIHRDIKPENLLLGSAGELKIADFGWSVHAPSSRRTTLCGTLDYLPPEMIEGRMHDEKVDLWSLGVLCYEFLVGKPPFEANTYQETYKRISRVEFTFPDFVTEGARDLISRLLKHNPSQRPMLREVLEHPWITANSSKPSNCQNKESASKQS
# Method in brief: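 His-tagged Aurora A expressed in E. coli, Ni-purified; reaction in 50 mM Tris pH 7.4, 15 mM Mg acetate, 0.2 mM EDTA with 100 μM Kemptide, 20 μM ATP plus [γ-33P]ATP, 20 min at 30 °C. Phosphopeptide captured on P81 filters and counted by scintillation; DMSO control.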
# [3] = HeLa S3, compound 0.1 μM + paclitaxel 1 nM
# [4] = HeLa S3, compound 0.3 μM + paclitaxel 1 nM
# [5] = HeLa S3, compound 1.0 μM + paclitaxel 1 nM
# [6] = HeLa S3, compound 3.0 μM + paclitaxel 1 nM
SMILES,IC50 (Aurora B),IC50 [2],IC50 (Aurora A),"Cell growth inhibitory effect by combined administration of paclitaxel and the compound of Example (%) [1, 3]","inhibition at 0.1 µM ([1]; Homo sapiens, HeLa S3, 72 h)","Cell growth inhibitory effect by combined administration of paclitaxel and the compound of Example (%) [1, 4]","inhibition at 0.3 µM ([1]; Homo sapiens, HeLa S3, 72 h)","Cell growth inhibitory effect by combined administration of paclitaxel and the compound of Example (%) [1, 5]","inhibition at 1 µM ([1]; Homo sapiens, HeLa S3, 72 h)","Cell growth inhibitory effect by combined administration of paclitaxel and the compound of Example (%) [1, 6]","inhibition at 3 µM ([1]; Homo sapiens, HeLa S3, 72 h)","Cell growth inhibitory effect by sole administration of paclitaxel (1 nM) (%) ([1]; HeLa S3, paclitaxel 1 nM alone)","inhibition at 0.001 µM ([1]; Homo sapiens, HeLa S3, 72 h, HeLa S3, paclitaxel 1 nM alone, read-out: Cell growth inhibitory effect by sole administration of paclitaxel (1 nM) (%))"
"O=C(c1cccc(Cl)c1F)N1CCN(Cc2cccc(Nc3nccs3)n2)CC1 [Example 5, 6-((4-(3-chloro-2-fluorobenzoyl)piperazin-1-yl)methyl)-N-thiazol-2-ylpyridin-2-amine]",0.44 µM,11 µM,0.00067 µM,72.8%,0%,–,–,–,–,–,–,–,–
"O=C(c1cccc(Cl)c1Cl)N1CCN(Cc2cccc(Nc3nccs3)n2)CC1 [Example 6, 6-((4-(2,3-dichlorobenzoyl)piperazin-1-yl)methyl)-N-thiazol-2-ylpyridin-2-amine]",0.2 µM,0.4 µM,0.0005 µM,–,–,89.0%,19.6%,–,–,–,–,–,–
"Cc1cccc(C(=O)N2CCN(Cc3cccc(Nc4nccs4)n3)CC2)c1F [Example 8, 6-((4-(2-fluoro-3-methylbenzoyl)piperazin-1-yl)methyl)-N-thiazol-2-ylpyridin-2-amine]",1.4 µM,0.25 µM,0.0019 µM,87.1%,4.6%,–,–,–,–,–,–,–,–
"O=C(c1cccc(Cl)c1Cl)N1CCN(Cc2cccc(Nc3cc[nH]n3)n2)CC1 [Example 17, 6-((4-(2,3-dichlorobenzoyl)piperazin-1-yl)methyl)-N-1H-pyrazol-3-ylpyridin-2-amine]",3.2 µM,1.1 µM,0.0012 µM,–,–,73.8%,0%,–,–,–,–,–,–
"O=C(O)C(F)(F)F.O=C(c1cccc(C(F)(F)F)c1F)N1CCN(Cc2cccc(Nc3cc[nH]n3)n2)CC1 [Example 19, 6-((4-(2-fluoro-3-(trifluoromethyl)benzoyl)piperazin-1-yl)methyl)-N-1H-pyrazol-3-ylpyridin-2-amine trifluoroacetate]",0.53 µM,0.92 µM,0.0009 µM,77.6%,0%,–,–,–,–,–,–,–,–
"O=C(c1cccc(C(F)F)c1F)N1CCN(Cc2cccc(Nc3cc[nH]n3)n2)CC1 [Example 22, 6-((4-(3-(difluoromethyl)-2-fluorobenzoyl)piperazin-1-yl)methyl)-N-1H-pyrazol-3-ylpyridin-2-amine]",1.5 µM,3.5 µM,0.0029 µM,–,–,–,–,80.9%,18.5%,–,–,–,–
"O=C(O)C(F)(F)F.O=C(c1cccc(Cl)c1Cl)N1CCN(Cc2cccc(Nc3ncns3)n2)CC1 [Example 36, 6-((4-(2,3-dichlorobenzoyl)piperazin-1-yl)methyl)-N-1,2,4-thiadiazol-5-ylpyridin-2-amine trifluoroacetate]",3.2 µM,6.8 µM,0.0026 µM,–,–,–,–,–,–,83.4%,17.2%,–,–
"CC(=O)O[C@H]1C(=O)[C@@]2(C)[C@H]([C@H](OC(=O)c3ccccc3)[C@]3(O)C[C@H](OC(=O)[C@H](O)[C@@H](NC(=O)c4ccccc4)c4ccccc4)C(C)=C1C3(C)C)[C@]1(OC(C)=O)CO[C@@H]1C[C@@H]2O [paclitaxel, reference compound]",–,–,–,–,–,–,–,–,–,–,–,37.8% and 45.4% and 43.3% and 36.8%,44.1%

# Second part, led by results:
IC50 (Aurora B),IC50 [2],IC50 (Aurora A),SMILES,"Cell growth inhibitory effect by combined administration of paclitaxel and the compound of Example (%) [1, 3]","inhibition at 0.1 µM ([1]; Homo sapiens, HeLa S3, 72 h)","Cell growth inhibitory effect by combined administration of paclitaxel and the compound of Example (%) [1, 4]","inhibition at 0.3 µM ([1]; Homo sapiens, HeLa S3, 72 h)","Cell growth inhibitory effect by combined administration of paclitaxel and the compound of Example (%) [1, 5]","inhibition at 1 µM ([1]; Homo sapiens, HeLa S3, 72 h)","Cell growth inhibitory effect by combined administration of paclitaxel and the compound of Example (%) [1, 6]","inhibition at 3 µM ([1]; Homo sapiens, HeLa S3, 72 h)","Cell growth inhibitory effect by sole administration of paclitaxel (1 nM) (%) ([1]; HeLa S3, paclitaxel 1 nM alone)","inhibition at 0.001 µM ([1]; Homo sapiens, HeLa S3, 72 h, HeLa S3, paclitaxel 1 nM alone, read-out: Cell growth inhibitory effect by sole administration of paclitaxel (1 nM) (%))"
0.77 µM,0.8 µM,0.0011 µM,"Cc1cc(Nc2cccc(CN3CCN(C(=O)c4cccc(Cl)c4F)CC3)n2)n[nH]1 [Example 25, 6-((4-(3-chloro-2-fluorobenzoyl)piperazin-1-yl)methyl)-N-(5-methyl-1H-pyrazol-3-yl)pyridin-2-amine]",65.1%,0%,–,–,–,–,–,–,–,–
0.31 µM,1.1 µM,0.00052 µM,"Cc1cc(Nc2cccc(CN3CCN(C(=O)c4cccc(Br)c4F)CC3)n2)n[nH]1 [Example 28, 6-((4-(3-bromo-2-fluorobenzoyl)piperazin-1-yl)methyl)-N-(5-methyl-1H-pyrazol-3-yl)pyridin-2-amine]",–,–,84.5%,0%,–,–,–,–,–,–
0.59 µM,3.3 µM,0.00097 µM,"Cc1cc(Nc2cccc(CN3CCN(C(=O)c4cccc(C(F)(F)F)c4F)CC3)n2)n[nH]1 [Example 29, 6-((4-(2-fluoro-3-(trifluoromethyl)benzoyl)piperazin-1-yl)methyl)-N-(5-methyl-1H-pyrazol-3-yl)pyridin-2-amine]",–,–,77.3%,0%,–,–,–,–,–,–
0.32 µM,2.5 µM,0.0011 µM,"Cc1cc(Nc2cccc(CN3CCN(C(=O)c4cccc(C(F)(F)F)c4Cl)CC3)n2)n[nH]1 [Example 30, 6-((4-(2-chloro-3-(trifluoromethyl)benzoyl)piperazin-1-yl)methyl)-N-(5-methyl-1H-pyrazol-3-yl)pyridin-2-amine]",–,–,–,–,90.1%,29.1%,–,–,–,–
9.1 µM,11 µM,0.067 µM,"O=C(c1ccccc1C(F)(F)F)N1CCN(Cc2cccc(Nc3ncns3)n2)CC1 [Example 39, 6-((4-(2-(trifluoromethyl)benzoyl)piperazin-1-yl)methyl)-N-1,2,4-thiadiazol-5-ylpyridin-2-amine]",–,–,–,–,–,–,72.2%,5.4%,–,–
1.9 µM,6.5 µM,0.00099 µM,"O=C(c1cccc(C(F)(F)F)c1F)N1CCN(Cc2cccc(Nc3ncns3)n2)CC1 [Example 40, 6-((4-(2-fluoro-3-(trifluoromethyl)benzoyl)piperazin-1-yl)methyl)-N-1,2,4-thiadiazol-5-ylpyridin-2-amine]",–,–,–,–,76.9%,6.5%,–,–,–,–
